pEC50: −log10 of the molar value. Like-named read-outs stand apart in the source and are kept apart here.
What was measured:
[1] = system: MCV-positive MCC cell lines (MKL-1, MKL-2, MS-1 and WaGa); assay: Cell-Titer Glo growth inhibition by YM155; type: cell-based, human; conditions: 48 h
Source text: (§1) Seven Merkel cell carcinoma cell lines: MKL-1, MKL-2, MS-1, UISO, MCC13, MCC26 and WaGa (kind gift of Jurgen Becker (Houben et al., Merkel cell polyomavirus-infected Merkel cell carcinoma cells require expression of viral T antigens. J Virol 84, 7064 (July, 2010); Ronan et al., Merkel cell carcinoma: in vitro and in vivo characteristics of a new cell line. J Am Acad Dermatol 29, 715 (November, 1993); Rosen et al., Establishment and characterization of a neuroendocrine skin carcinoma cell line. Lab Invest 56, 302 (March, 1987)); NCI-H69 small cell lung cancer cell line (ATCC); 293 human embryonic kidney cells (ATCC); U2OS osteosarcoma cell line (kind gift of Ole Gjoerup); BJhTERT immortalized foreskin fibroblast cell line (kind gift of Ole Gjoerup); and BJ primary foreskin fibroblasts (ATCC) were used to screen and evaluate the small molecules examined in this study (Houben et al., J Virol 84, 7064 (July, 2010); Ronan et al., J Am Acad Dermatol 29, 715 (November, 1993); Rosen et al., Lab Invest 56, 302 (March, 1987)). […]
(§2) Serial drug dilutions from 10^−4 M to 10^−9 M were used on MCC and non-MCC cell lines. […] Cell viability was then measured using Cell Titer Glo (Promega) kit following manufacturer's instructions as described previously. […] EC50 doses for the drugs were calculated using a four parameter logistic equation (GraphPad Prism).

[2] = system: MCV-negative MCC13, BJ and BJhTERT cells; assay: Cell-Titer Glo growth curves for YM155; type: cell-based, human; conditions: 48 h
Source text: as §1, §2

[3] = system: MCV-negative UISO and MCC26; assay: Cell-Titer Glo growth curves for YM155; type: cell-based, human; conditions: 48 h
Source text: as §1, §2

[4] = system: MKL-1 cells; assay: Trypan blue dye exclusion assay; conditions: for viability at 0.1 µM: Homo sapiens
Protocol: (§3) Cells were equally seeded and treated with YM155 for 48 hours. To count blue stained dead cells, cells were treated with Accutase (Millipore), collected, resuspended in PBS, mixed with equal volume of Trypan blue (Lonza, 0.4%) and counted using a hemocytometer under the microscope. The counts were done in triplicate and the experiment was repeated three times.
MKL-1 cells were co-stained with CFDA (green, live) and PI (red, dead). In FIG. 4D, column graphs represent mean and range quantitations (using ImageJ) of % CFDA positive and % PI positive cells.

[5] = system: BJ cells; assay: Trypan blue dye exclusion assay; type: cell-based, human; conditions: 48 h
Protocol: as §3

[6] = system: UISO cells; assay: Trypan blue dye exclusion assay; type: cell-based, human; conditions: 48 h
Protocol: as §3

[7] = system: survivin protein expression in MKL-1 cells; assay: Immunoblotting for survivin; type: cell-based, human; conditions: after 12 h treatment
Protocol: Cells were lysed in buffer (RIPA or 10 mM Tris-HCl pH 8.0, 0.6% SDS) containing protease inhibitor cocktail (Roche). Lysates were electrophoresed in 10% SDS-PAGE, transferred to nitrocellulose membrane (Amersham) and reacted with specific antibodies (CM2B4, (1:5000 dilution) (Shuda et al., Human Merkel cell polyomavirus infection I. MCV T antigen expression in Merkel cell carcinoma, lymphoid tissues and lymphoid tumors. Int J Cancer 125, 1243 (Sep. 15, 2009)), cleaved PARP, cleaved caspase3, survivin, XIAP, p53, Bcl-2, Bax (1:1000 dilution, Cell Signalling Technologies), E2F1, cyclin E (1:1000 dilution, Santa Cruz Biotechnology), LC3 (1:1000 dilution, Novus Biologicals) or α-tubulin (1:5000 dilution, Sigma)) overnight at 4° C., followed by anti-mouse (1:5000 dilution, Amersham) or anti-rabbit IgG-HRP conjugates (1:3000 dilution, Cell signaling) for 1 hour at room temperature. Peroxidase activity was detected using Western Lightning plus-ECL reagent (Perkin Elmer). For quantitative immunoblotting, Odyssey Infrared Imaging system (LICOR) was used with IRDye 800-conjugated secondary antibodies (1:5000 dilution, Rockland Immuno chemicals).

[8] = system: MKL-1 cells; assay: Immunoblotting for cPARP, cCaspase 3 and LC3; type: cell-based, human; conditions: 100 nM, 48 hours
[9] = system: MKL-1 cells; assay: Cell cycle analysis (PI and BrdU staining); type: cell-based, human; conditions: 12 h, YM155 100 nM, camptothecin 1 μM
Protocol: MKL-1 cells were treated with Accutase (Millipore) to break clumps and then resuspended in fresh medium containing drug and treated for 12 hours. Three hours before harvest 10 μM Bromodeoxyuridine (BrdU) was added. Cells were then harvested and fixed in chilled 70% ethanol and left overnight. The next day cells were washed, resuspended in 200 μl of 2M HCl/Triton X (1%) and incubated for 30 mins at room temperature. Cells were then centrifuged at 2000 rpm for 10 mins and neutralized in 200 μl of 0.1M sodium tetraborate, pH 8.5 solution. Cells were then washed, suspended in 20 μl of PBS containing 0.5% tween20, 1% donkey serum and 2ul of anti-BrdU antibody (1:10 diution, BD Biosciences) and incubated overnight at 4° C. Cells were then washed and incubated with secondary antibody-anti mouse Alexa488 (1:1000) for 1 hour at room temperature. Cells were finally washed, suspended in PBS containing 100 μg/ml of RNase A, 50 μg/ml of PI (propidium iodide) and 0.05% Triton X and incubated for 30 mins at 37° C. in the dark. The cells were then subjected to FACS using the accuri C6 flow cytometer (UPCI shared resources).

[10] = system: MKL-1 cells; assay: Cell death evaluation by CFDA and PI staining; type: cell-based, human; conditions: 100 nM
Protocol: Upon harvesting cells are resuspended in 2 ml of PBS containing 4 μg/ml PI (propidium iodide, Sigma) and 10 μM Carboxy fluorescin diacetate (CFDA, Invitrogen) at room temperature for 10 mins. Cells were then rinsed in 1× PBS and then examined under the microscope. Quantitation was done using ImageJ software.

[11] = system: MKL-2 xenografts; assay: MKL-2 xenograft drug treatment; type: in vivo, NSG mice; conditions: continuously at 4 mg/kg
Protocol: Cells of Merkel cell polyomavirus (+) carcinoma cell lines MKL-1, MS-1, WaGa, and MKL-2 were checked for viability >90% by trypan blue staining, resuspended in PBS (2×10^7 cells in 100 μl) and inoculated subcutaneously into the right flank of mice.

## COCCn1c2c([n+](Cc3cnccn3)c1C)C(=O)c1ccccc1C2=O.[Br-] [YM155, 1-(2-methoxyethyl)-2-methyl-4,9-dioxo-3-(pyrazin-2-ylmethyl)-4,9-dihydro-1H-naphtho[2,3-d]imidazol-3-ium bromide]
[1]; MKL-1, MKL-2, MS-1 and WaGa
  sensitivity to YM155, dose-dependent growth curves: sensitive
[1]; Homo sapiens, MKL-1, range over MCV-positive MCC cell lines, Cell-Titer Glo, read-out: EC50, inhibiting MCV-positive MCC cell growth in vitro
  pEC50: 7.91 to 8.87
[2]
  sensitivity to YM155, dose-dependent growth curves: relative resistance
[3]
  sensitivity to YM155, dose-dependent growth curves: intermediate sensitivity
[4]; 48 h, MKL-1
  cell killing, trypan blue vital dye exclusion: dose-dependent cell killing
[4]; MKL-1, read-out: cells remaining viable at 48 hours, 100 nM for 3 hours, followed by wash out
  viability at 0.1 µM: 51%
[4]; MKL-1, read-out: cells remaining viable at 48 hours, 100 nM for 6 hours, followed by wash out
  viability at 0.1 µM: 3%
[4]; MKL-1, read-out: cells remaining viable at 48 hours, 100 nM for 12 hours, followed by wash out
  viability at 0.1 µM: 1.8%
[5]
  cell killing, trypan blue vital dye exclusion: resistant
[6]
  cell killing, trypan blue vital dye exclusion: relatively less sensitive
[7]
  survivin protein expression: dose-dependent decrease
[8]
  LC3-II accumulation (marker for cell autophagy): did not initiate LC3-II accumulation
  apoptosis measured by caspase 3 and PARP cleavage: No evidence of apoptosis
[9]
  BrdU incorporation: ablates BrdU incorporation in all phases of the cell cycle
[10]
  time to initiation of programmed cell death (PI positive, CFDA negative): 12 to 24 h
[11]
  animals surviving, of 10: three survived more than four months
